# Patent US20250064967A1, “COMBINATION OF ANTIBODY-DRUG CONJUGATE AND ATR INHIBITOR” (AstraZeneca UK Limited, priority 2021, published 2025)
# B1: DS-1062: anti-TROP2 antibody-drug conjugate; exatecan-derivative drug-linker conjugated to the anti-TROP2 antibody via a thioether bond; DAR ~4 (conjugate, chains of the INN, looked up)
# VH: QVQLVQSGAEVKKPGASVKVSCKASGYTFTTAGMQWVRQAPGQGLEWMGWINTHSGVPKYAEDFKGRVTISADTSTSTAYLQLSSLKSEDTAVYYCARSGFGSSYWYFDVWGQGTLVTVSS
# VL: DIQMTQSPSSLSASVGDRVTITCKASQDVSTAVAWYQQKPGKAPKLLIYSASYRYTGVPSRFSGSGSGTDFTLTISSLQPEDFAVYYCQQHYITPLTFGQGTKLEIK
# modifications: exatecan-derivative drug-linker, DAR ~4
# Assays:
# Design in all cases: species or system Female Nude mice
# [1] = tested on: N87-DS-1062 resistant tumor cell xenograft (gastric cancer cell line); assay: Antitumor test in vivo, N87 DS-1062 resistant model (Example 9); conditions: N87-DS-1062 resistant xenograft; DS-1062 10 mg/kg IV single dose; AZD6738 25 mg/kg PO BID Day 1-7
# Experimental: Female Nude mice (Charles River) aged 5-8 weeks were used, following 7 days acclimatisation before entry into the study. 5×10^6 N87-DS-1062 resistant tumor cells (gastric cancer cell line) (1:1 in Matrigel) were implanted subcutaneously onto the flank of the female Nude mice. When tumors reached approximately 250 mm^3, similar-sized tumors were randomly assigned to treatment groups as shown in Table 13:
# The dose of compound for each animal was calculated based on the individual body weight on the day of dosing. DS-1062 and AZD6738 were dosed on the same day, with DS-1062 being administered approximately 5 hour post the PO dose of AZD6738. DS-1062 was administered as a single dose at 10 mg/kg on day 1, and AZD6738 was administered at 25 mg/kg BID for 7 days.
# (§1) The dosing solution for DS-1062 was prepared on the day of dosing by diluting the DS-1062 stock (20.1 mg/ml) in 25 mM histidine buffer, 9% sucrose (pH5.5) to 2 mg/ml for 10 mg/kg dosing solution. The dosing solution was mixed well using a pipette before administration via IV injection at a dosing volume of 5 ml/kg.
# DMSO (10% of the total vehicle volume) was added to the compound and mixed well with a pellet pestle. Sonication for approximately 5 minutes was required to fully dissolve the compound. Following which, propylene glycol (40% of the total vehicle volume) was added and mixed well using a magnetic stirrer. […]
# [2] = tested on: CTG-3303 xenograft (TNBC PDX, relapsed on talazoparib); assay: Antitumor test in vivo, TNBC patient derived xenograft model CTG-3303 (Example 5); conditions: CTG-3303 TNBC PDX; for TGI % day 46: DS-1062 10 mg/kg IV single dose, AZD6738 25 mg/kg PO QD 14 days; for percentage of mice achieving a complete response (tumor volume=0 mm^3): day 93 post treatment, 8 mice per group, DS-1062 10 mg/kg, AZD6738 25 mg/kg QD
# Text: (§2) Female Nude mice (Charles River) aged 5-8 weeks were used, following 7 days acclimatisation before entry into the study. The human patient-derived xenograft (PDX) model, CTG-3303, was established from fragments of freshly resected tumor of a triple negative breast cancer (TNBC) patient whom relapsed on treatment with PARP inhibitor talazoparib. This PDX was obtained in accordance with appropriate consent procedures. This TNBC PDX model was subcutaneously passaged in vivo as fragments from animal to animal in nude mice. When tumors reached approximately 250 mm^3, similar-sized tumors were randomly assigned to treatment groups as shown in Table 6:
# (§3) The dose of compound for each animal was calculated based on the individual body weight on the day of dosing. DS-1062 and AZD6738 were dosed on the same day, with DS-1062 being administered approximately 5 hour post the PO dose of AZD6738. DS-1062 was administered as a single dose at 10 mg/kg on day 1, and AZD6738 was administered at 25 mg/kg QD for 14 days. Duration of dosing was for 14 days.
# The dosing solutions for DS-1062 were prepared on the day of dosing by diluting the DS-1062 stock (20.1 mg/ml) in 25 mM histidine buffer, 9% sucrose (pH5.5) to 0.6 mg/ml, and 2 mg/ml for the 3 mg/kg and 10 mg/kg dosing solutions, respectively. Each dosing solution was mixed well using a pipette before administration via IV injection at a dosing volume of 5 ml/kg.
# DMSO (10% of the total vehicle volume) was added to the compound and mixed well with a pellet pestle. Sonication for approximately 5 minutes was required to fully dissolve the compound. Following which, propylene glycol (40% of the total vehicle volume) was added and mixed well using a magnetic stirrer. A volume of 10 ml of sterile water was added to the glass wheaton vial to rinse any remaining compound from the vial then transferred to the glass bottle. The remaining volume of sterile water in total (50% of the final vehicle volume) was added to the glass bottle and mixed well using a magnetic stirrer. The dosing solution was protected from light and kept at room temperature for up to 7 days being continually mixed. The final dosing matrix for 25 mg/kg AZD6738 was a clear solution with a faint yellow hue.
# Values shown are geometric mean±SEM; n=8 for all treatment groups. The mice which had reached the humane endpoint (e.g. large tumor burden) during the study were removed from the group and the remaining mice were used for the calculation of the TGI.
# [3] = tested on: NCI-N87 xenograft (gastric cancer cell line); assay: Antitumor test in vivo, NCI-N87 xenograft model (Example 4); conditions: DS-1062 10 mg/kg IV single dose, AZD6738 25 mg/kg PO QD 14 days
# Experimental: Female Nude mice (Charles River) aged 5-8 weeks were used, following 7 days acclimatisation before entry into the study. 5×10^6 NCI-N87 tumor cells (gastric cancer cell line) (1:1 in Matrigel) were implanted subcutaneously onto the flank of the female Nude mice. When tumors reached approximately 250 mm^3, similar-sized tumors were randomly assigned to treatment groups as shown in Table 4:
# as §3
# The dosing solutions for DS-1062 were prepared on the day of dosing by diluting the DS-1062 stock (20.1 mg/ml) in 25 mM histidine buffer, 9% sucrose (pH5.5) to 0.6 mg/ml, and 2 mg/ml for the 3 mg/kg and 10 mg/kg dosing solutions, respectively. Each dosing solution was mixed well using a pipette before administration via IV injection at a dosing volume of 5 ml/kg. […]
# (§4) Tumor growth inhibition (TGI) was calculated as follows:
# (§5) Statistical significance was evaluated using one-tailed t-test of (log(relative tumor volume)=log(final vol/start vol)) at the day of final measure, comparing to vehicle control. […]
# [4] = tested on: CTG-3718 xenograft (ovarian PDX, relapsed on talazoparib); assay: Antitumor test in vivo, CTG3718 ovarian patient derived xenograft model (Example 8); conditions: CTG-3718 ovarian PDX; DS-1062 10 mg/kg IV single dose; AZD6738 25 mg/kg PO BID Day 1-14
# Text: as §2, with “(Envigo)” for “(Charles River)”, “CTG-3718,” for “CTG-3303,”, “ovarian” for “triple negative breast”, “cancer” for “cancer (TNBC)”, “ovarian” for “TNBC”, “11:” for “6:”
# The dose of compound for each animal was calculated based on the individual body weight on the day of dosing. DS-1062 and AZD6738 were dosed on the same day, with DS-1062 being administered approximately 5 hour post the PO dose of AZD6738. DS-1062 was administered as a single dose at 10 mg/kg on day 1, and AZD6738 was administered at 25 mg/kg BID for 14 days.
# as §1
# DMSO (10% of the total vehicle volume) was added to the compound and mixed well with a pellet pestle. […]
# [5] = tested on: NCI-N87 xenograft (gastric cancer cell line); assay: Antitumor test in vivo, dose optimization, NCI-N87 xenograft model (Example 7); conditions: DS-1062 10 mg/kg IV single dose, AZD6738 25 mg/kg PO BID Day 1-14
# Experimental: Female Nude mice (Envigo) aged 5-8 weeks were used, following 7 days acclimatisation before entry into the study. 5×10^6 NCI-N87 tumor cells (gastric cancer cell line) (1:1 in Matrigel) were implanted subcutaneously onto the flank of the female Nude mice. When tumors reached approximately 250 mm^3, similar-sized tumors were randomly assigned to treatment groups as shown in Table 9:
# The dose of compound for each animal was calculated based on the individual body weight on the day of dosing. DS-1062 was administered as a single dose at 10 mg/kg on day 1, and AZD6738 was administered at 25 mg/kg BID as listed in Table 9.
# The dosing solution for DS-1062 was prepared on the day of dosing by diluting the DS-1062 stock (20.1 mg/ml) in 25 mM histidine buffer, 9% sucrose (pH5.5) to 2 mg/ml for 10 mg/kg dosing solution. Each dosing solution was mixed well using a pipette before administration via IV injection at a dosing volume of 5 ml/kg.
# DMSO (10% of the total vehicle volume) was added to the compound and mixed well with a pellet pestle. Sonication for approximately 5 minutes was required to fully dissolve the compound. […]
# as §4, §5
Molecule,TGI % day 21 [1],TGI % day 46 [2],percentage of mice achieving a complete response (tumor volume=0 mm^3) [2],TGI % day 33 [3],TGI % day 22 [4],TGI % day 42 [5]
"C[C@@H]1COCCN1c1cc(C2([S@](C)(=N)=O)CC2)nc(-c2ccnc3[nH]ccc23)n1 [AZD6738, 4-{4-[(3R)-3-Methylmorpholin-4-yl]-6-[1-((R)-S-methylsulfonimidoyl)cyclopropyl]pyrimidin-2-yl}-1H-pyrrolo[2,3-b]pyridine]",−9.8%,2.3%,0%,30.1%,−25.7%,23.7%
B1,0.77%,88.2%,0%,84.1%,69.8%,74.8%
